Test system: Plasmodium berghei
Experiment: Luciferase/luciferin-expressing antifolate-resistant parasites were used to infect a culture of HepG2 cells that were pre-incubated with compounds. Infected hepatocytes emit light due to the luciferase reaction. Assay results are presented as the percent inhibition of light emission compared to control. […]
Assay type: functional
Conditions: sporozoite; for IC50: read-out: LUCIFERASE INFECTION ASSAY - IC50; for IC90: read-out: LUCIFERASE INFECTION ASSAY - IC90

Row | Compound | IC50 | IC90
1 | Cc1cccc(NC(=O)c2ccc(Cl)c(S(=O)(=O)N3CCc4ccccc43)c2)n1 | > 10 µM | > 10 µM
2 | Cc1cccn2c(=O)cc(CSc3cc(C(=O)NC4CC4)c4ccccc4n3)nc12 | > 10 µM | > 10 µM
3 | CCCCOc1ccc(C(=O)NCC(=O)N2CCN(C/C=C/c3ccccc3)CC2)cc1 | 5.03 µM | 7.33 µM
4 | N#Cc1ccc(CN2CCN(Cc3nnc(C(=O)Nc4ccc(Cl)cc4)s3)CC2)cc1 | > 10 µM | > 10 µM
5 | COc1ccccc1NC(=O)C(=Cc1ccc(N2CCCC2)c([N+](=O)[O-])c1)C(=O)Nc1ccccc1OC | > 10 µM | > 10 µM
6 | CC(=O)N1CCc2cc(C(=O)C(C)OC(=O)/C(=C/c3ccc(F)cc3)c3cccs3)ccc21 (stereo not drawn) | 7.08 µM | > 10 µM
7 | O=C(Cn1cccc(C(F)(F)F)c1=O)NC(Cc1ccccc1)c1ccccc1 (stereo not drawn) | > 10 µM | > 10 µM
8 | COC(=O)/C(O)=C/C(=O)c1c(C)[nH]c(C(=O)OC)c1C | > 10 µM | > 10 µM
9 | O=C(CN1C(=O)c2cccc([N+](=O)[O-])c2C1=O)OCC(=O)N1CCC(Cc2ccccc2)CC1 | > 10 µM | > 10 µM
10 | CC(=O)c1csc(NC(=O)c2ccc(CSc3ccccc3)o2)n1 | > 10 µM | > 10 µM
11 | Cc1nn(-c2ccccc2Cl)c2sc(C(=O)Nc3ccc(-c4nnc5n4CCCCC5)cc3)cc12 | > 10 µM | > 10 µM
12 | Cc1ccccc1C(=O)/C=c1\s/c(=C\c2ccc(O)cc2)c(=O)n1C | > 10 µM | > 10 µM
13 | Cc1nccn1Cc1cccc(CNC(=O)/C=C/c2cccc(Cl)c2Cl)c1 | > 10 µM | > 10 µM
14 | COc1ccccc1-c1noc(CSc2nc3ccccc3c(=O)n2-c2ccc(C)cc2)n1 | > 10 µM | > 10 µM
15 | O=C1c2cc(Br)ccc2S(=O)(=O)N1CC(c1ccco1)N1CCCC1 (stereo not drawn) | > 10 µM | > 10 µM
16 | Cc1c(C(=O)O)sc(S(=O)(=O)N2CCN(C(=O)C(C)(C)C)CC2)c1C(=O)O | > 10 µM | > 10 µM
17 | CCOC(=O)c1c(C)[nH]c(C(=O)OCC(=O)NC23CC4CC(CC(C4)C2)C3)c1C | > 10 µM | > 10 µM
18 | CC(=O)Nc1ccc(/C=C2\S/C(=N\c3cccc4ccccc34)N(Cc3ccccc3F)C2=O)cc1 | 6.52 µM | > 10 µM
19 | O=C(NCc1ccc(Cn2cccn2)cc1)N1CCN(c2ccc(C(F)(F)F)cc2[N+](=O)[O-])CC1 | > 10 µM | > 10 µM
20 | O=C(c1ccc2[nH]c3c(c2c1)CCCC3)N1CCN(Cc2nc(-c3cccs3)no2)CC1 | > 10 µM | > 10 µM
21 | CC1Sc2ccc(C(=O)Nc3ccnn3Cc3cccc(Cl)c3Cl)cc2NC1=O (stereo not drawn) | > 10 µM | > 10 µM
22 | Cc1nn(CC(=O)NCCCN2c3ccccc3Sc3ccccc32)c(C)c1[N+](=O)[O-] | > 10 µM | > 10 µM
23 | O=C(CCc1c[nH]c2ccccc12)Nc1ccc(N2CCc3sccc3C2)nc1 | 8.67 µM | > 10 µM
24 | Cc1c(C(=O)Nc2ccc(N3CCN(C)CC3)nc2)cnn1-c1ccc(C(F)(F)F)cn1 | > 10 µM | > 10 µM
25 | CC(C)c1cc(C(=O)OCCCn2c(=O)[nH]c3ccccc32)c2cnn(C(C)C)c2n1 | > 10 µM | > 10 µM
26 | O=C(Cc1csc(-c2ccccn2)n1)Nc1sc2c(c1C(=O)NCc1ccccc1)CCCC2 | > 10 µM | > 10 µM
27 | CCCCN(C)S(=O)(=O)c1ccc(NC(=O)c2ccc3nccnc3c2)cc1 | > 10 µM | > 10 µM

Row | Compound | IC50 | IC90
28 | COc1cc(/C=C2/C(=O)N(C)c3ccccc32)cc(OC)c1 | > 10 µM | > 10 µM
29 | Cc1cc(N(CCC#N)C(=O)Cn2ncc(Cl)c(Cl)c2=O)ccc1Cl | 5.68 µM | 5.85 µM
30 | CCc1ccccc1-n1c(SCCn2c(=O)oc3ccccc32)nc2ccccc2c1=O | > 10 µM | > 10 µM
31 | CN1C(=O)/C(=C\c2ccccc2[N+](=O)[O-])c2ccccc21 | 9.31 µM | > 10 µM
32 | Cc1cc(=O)oc2cc(NCC(=O)Nc3cc4c(cc3Cl)OCCO4)ccc12 | > 10 µM | > 10 µM
33 | CCOC(=O)c1c(NC(=O)CSc2nnc(N)[nH]2)sc(Br)c1-c1ccccc1 | 6.28 µM | > 10 µM
34 | O=S(=O)(NCc1nnc2n1-c1ccccc1CC2)c1ccc(C2CCCCC2)cc1 | > 10 µM | > 10 µM
35 | Cc1ccc2nc(NC(=O)c3cn(C)nc3-c3ccc4c(c3)OCCCO4)sc2c1 | > 10 µM | > 10 µM
36 | COc1ccccc1CNC(=O)NC(C)c1ccc(Cl)cc1Cl (stereo not drawn) | > 10 µM | > 10 µM
37 | Cc1ccc(S(=O)(=O)N(C)c2ccc(OCc3coc(-c4cccs4)n3)cc2)cc1 | > 10 µM | > 10 µM
38 | CC(=O)NCCc1ccc(C(=O)CSc2nccn2-c2ccc(Cl)cc2)s1 | > 10 µM | > 10 µM
39 | c1ccc(-c2csc3nc(-c4ccccn4)nc(Sc4nnc(-c5ccco5)o4)c23)cc1 | > 10 µM | > 10 µM
40 | CC(C)CN(C(=O)COC(=O)/C=C/c1nc2ccccc2s1)c1c(N)n(Cc2ccccc2)c(=O)[nH]c1=O | 3.46 µM | 3.98 µM
41 | O=C(OCC(=O)C12CC3CC(CC(C3)C1)C2)c1cc2ccccc2cc1O | > 10 µM | > 10 µM
42 | CCN(Cc1ccc2c(c1)OCCO2)C(=O)C1CCN(c2ncnc3sc(C)c(C)c23)CC1 | > 10 µM | > 10 µM
43 | Cc1cc(-c2nc3c(c(=O)[nH]c(=O)n3Cc3ccccc3)n2CC2CCCO2)cc(C)c1O (stereo not drawn) | > 10 µM | > 10 µM
44 | CC(=O)N(c1nc(/C=C/C(=O)c2ccc(F)c(Br)c2)cs1)c1ccc(F)cc1F | > 10 µM | > 10 µM
45 | Cc1nc(C(C)(C)C)nc2sc(C(=O)NNC(=O)c3ccccn3)c(C)c12 | 8.36 µM | > 10 µM
46 | O=C(Cc1nc(C23CC4CC(CC(C4)C2)C3)cs1)NCc1ccccc1 | > 10 µM | > 10 µM
47 | CC(=O)N1CCc2cc(NC(=O)Cn3c(COc4ccc5ccccc5c4)nc4ccccc43)ccc21 | > 10 µM | > 10 µM
48 | COc1ccc(OCCN2CCN(c3ccc(S(=O)(=O)NC(C)C)cn3)CC2)cc1 | > 10 µM | > 10 µM
49 | CCc1sc(C(=O)NNC(=O)CN2CCN(c3ccc([N+](=O)[O-])cc3)CC2)cc1C | > 10 µM | > 10 µM
50 | Cc1ccc(-c2noc(CCCN3CCN(C(=O)Cn4cnc5c(C)cccc5c4=O)CC3)n2)cc1 | > 10 µM | > 10 µM
51 | CCn1c(=O)n(CCC(=O)N(CC2CCCO2)c2nc3ccccc3s2)c2ccccc21 (stereo not drawn) | > 10 µM | > 10 µM
52 | CCOC(=O)c1c(NC(=O)Cn2ncc(Cl)c(Cl)c2=O)sc2c1CCC(C)C2 (stereo not drawn) | > 10 µM | > 10 µM
53 | CCN1CCN(c2ccc(NC(=O)CSc3nc4ccccc4s3)c(C)c2)CC1 | > 10 µM | > 10 µM
54 | CN(C)S(=O)(=O)c1ccc(NC(=O)COc2ccc(Oc3ccc(C(F)(F)F)cn3)cc2)cc1 | > 10 µM | > 10 µM

Row | Compound | IC50 | IC90
55 | CCOc1ccc(-c2nc(CSC(C)C(=O)Nc3c(Cl)cccc3Cl)cs2)cc1 (stereo not drawn) | > 10 µM | > 10 µM
56 | CCOc1ccc(N2C(=O)c3ccccc3C(C=NNc3ccc(S(=O)(=O)N(CC)CC)cc3[N+](=O)[O-])C2=O)cc1 (stereo not drawn) | > 10 µM | > 10 µM
57 | CCc1ccc(C(=O)C(C)Sc2ccc(S(=O)(=O)N3CCOCC3)cn2)cc1 (stereo not drawn) | > 10 µM | > 10 µM
58 | CC(=O)N1C=Cc2ccccc2C1CC(=O)Nc1ccc(Cl)c(S(=O)(=O)N2CCCC2)c1 (stereo not drawn) | > 10 µM | > 10 µM
59 | CCn1ncc2c(C(=O)Nc3nc(-c4ccc(OC)cc4OC)cs3)cc(-c3cccs3)nc21 | > 10 µM | > 10 µM
60 | CCOc1ccc(Oc2ccc(S(=O)(=O)N(C)C3CCN(CC)CC3)cc2)cc1 | > 10 µM | > 10 µM
61 | CC(=O)NCc1ccc(-c2csc(NC(=O)c3cc(-c4ccco4)nc4c3c(C)nn4C)n2)cc1 | > 10 µM | > 10 µM
62 | CN(Cc1ccc(-c2ccc(Cl)cc2)o1)Cc1nnc2n(C)c(=O)c3ccccc3n12 | > 10 µM | > 10 µM
63 | CCOC(=O)c1nc(N(CCc2ccccc2)C(=O)c2cccnc2SC)sc1C | > 10 µM | > 10 µM
64 | O=C(Nc1nc(-c2ccc(Cl)cc2Cl)cs1)C1CCN(c2ccc(Cl)nn2)CC1 | > 10 µM | > 10 µM
65 | COC(=O)c1occc1/C=C/C(=O)c1ccc2c(c1)CCC2 | > 10 µM | > 10 µM
66 | CCOC(=O)c1cnn(-c2ccc(NC(=O)COc3ccccc3C#N)cc2)c1C(F)(F)F | > 10 µM | > 10 µM
67 | CCOC(=O)c1cnn(-c2cccc(NC(=O)c3ccc(SC)c([N+](=O)[O-])c3)c2)c1C | > 10 µM | > 10 µM
68 | Cc1cc(=O)n2nc(CSc3nc4ccccc4c(=O)n3C3CCCC3)sc2n1 | > 10 µM | > 10 µM
69 | COc1ccc(/C=c2\s/c(=C\C(=O)C(C)(C)C)[nH]c2=O)cc1OCc1cccnc1 | > 10 µM | > 10 µM
70 | O=C1CN(C(=O)CSC2=N/C(=C/c3ccccc3)C(=O)N2c2ccc(F)cc2)c2ccccc2N1 | > 10 µM | > 10 µM
71 | CCN1CCc2nc(NC(=O)c3nc(-c4cccs4)n(-c4ccc(F)cc4)n3)sc2C1 | > 10 µM | > 10 µM
72 | Cc1cn2c(/C=C/C(=O)Nc3cccc(Cl)c3N3CCOCC3)c(C)nc2s1 | > 10 µM | > 10 µM
73 | Cc1ccc(S(=O)(=O)Nc2cccc(C(=O)NN(C)c3ccccc3)c2)cc1F | > 10 µM | > 10 µM
74 | O=C(Nc1ccc(-c2nc(-c3ccc(O)c(O)c3)cs2)cc1)c1cccs1 | > 10 µM | > 10 µM
75 | Cc1cc(C(=O)CN2CCc3sccc3C2)c(C)n1Cc1cccs1 | 2.21 µM | > 10 µM
76 | CCCn1c(N)c(C(=O)CSc2nnc(-c3ccccc3)c(-c3ccccc3)n2)c(=O)n(C)c1=O | > 10 µM | > 10 µM
77 | CCN(CC)C(CNc1ccc([N+](=O)[O-])cn1)Cc1ccccc1 (stereo not drawn) | 7 µM | > 10 µM
78 | CC1CN(S(=O)(=O)NCC(c2ccccc2Cl)c2c[nH]c3ccccc23)CC(C)O1 (stereo not drawn) | > 10 µM | > 10 µM
79 | O=C(c1ccc(NS(=O)(=O)c2cccs2)cc1)N1CCC(c2c[nH]c3ccccc23)CC1 | > 10 µM | > 10 µM

— ChEMBL document CHEMBL4483862, “Open-source discovery of chemical leads for next-generation chemoprotective antimalarials” (2018)
